Experimental data taken from patent publication US20230123497A1, “NOVEL ANTIBACTERIAL HYDROGELS” (NewSouth Innovations Pty Limited, priority 2020, published 2023).
Several values for one entry are separate records, joined by “and”; a condition that tells them apart may be missing. Identical values can stand only once.

What was measured:
Type in all cases: physicochemical
[1] = Atomic force microscopy (AFM) of fibers
Procedure: Hydrogels of NO-releasing short peptide 4 (1 drop), at high pH, low pH, and after irradiation, were cast onto a mica substrate. Hydrogels of cationic short peptides 11-13 and 15-19 were prepared at their CGC, 2× below, and 4× below CGC in glass vials. Prior to gelation, one drop of the cationic short peptide solutions was cast onto a mica substrate. Using a glass slide, each droplet was carefully spread and was left to dry overnight before imaging. Imaging was performed using a Bruker Multimode 8 Atomic Force Microscope in Scanasyst Air (PeakForce Tappings) mode, which is based on tapping mode AFM. To prevent damage of soft samples, the imaging parameters were constantly optimized through the force curves that were collected. Bruker Scanasyst-Air probes were used, with a spring constant of 0.4-0.8 N·m^−1 and a tip radius of 2 nm.
To gain some insight on the mechanism of antibacterial action, the released solutions from hydrogel made of primary ammonium 11 were directly cast onto a mica substrate. […] After gently spreading using a glass slide and left to dry overnight, these samples were imaged using a similar manner as describe above.

[2] = Strain sweep test (SST), linear viscoelastic region
Procedure: (§1) Initially, 1 mL of hydrogels were prepared from short peptides 11-13 and 15-19 in glass vials at concentration of 1% w/v. These vials were warmed using a heat gun to transform the hydrogel to the solution phase. Subsequently, 560 μL of the resulting solutions were cast onto the rheometer plate. The other plate was lowered to the measuring position ([…]) and the hydrogel was allowed to stand for 3 hours for the gel to form. The FST was conducted at fixed strain of 0.1% and frequency ranging from 10 Hz to 0.01 Hz. Meanwhile, the strain sweep test (SST) was performed at a frequency of 1 Hz using 0.1% strain to 100% strain. The rheology data were shown as the average of three repeats for each data point.
(§2) The mechanical properties of hydrogels 4 (formed via addition of NaCl or GdL) before and after blue light irradiation were also assessed using an Anton Paar MCR 302 rheometer with a 25 mm stainless parallel plate configuration. Prior to the hydrogel formation, 560 μL of solution phase of short peptide 4 at 1% w/v were transferred onto a rheometer plate. Meanwhile, hydrogel 4, which had been exposed to blue light, was warmed using a heat gun, to provide its solution phase. Subsequently, 560 μL of this solution phase was cast onto the rheometer plate. The other plate was lowered to the measuring position ([…]) and the hydrogel was allowed to stand for 3 hours for the gel to form. The frequency sweep test (FST) was conducted at fixed strain of 0.1% and frequency ranging from 10 Hz to 0.01 Hz. Meanwhile, the SST was performed at a frequency of 1 Hz using 0.1% strain to 100% strain. In addition, the temperature sweep test was conducted to obtain transition glass (Tg) using fixed frequency of 1 Hz and fixed strain of 0.1% with temperature ramping from 25° C. to 90° C. The rheology data were shown as the average of three repeats for each data point.
To observe the structural decay in anthranilamide-based cationic hydrogels, the SST was performed by imposing a non-linear strain. SST provides information about the viscoelastic properties of a hydrogel through determination of its linear viscoelastic region (LVER). […] Here, the LVER reported for each hydrogel represents the deviation of storage modulus (G′) from linearity, known as yield point (γy). Yield points have been reported to reflect a point where the rigidity of a hydrogel starts to weaken.

[3] = Hydrogel formation, vial inversion test (critical gel concentration); parameters: key: VS: viscous solution; CG: clear gel
Source text: (§3) The simplest method to determine whether a suitable hydrogel has formed is to use the vial inversion test. Through visual inspection, a material can be categorised as a solution, viscous solution, partial gel, or solid-like gel. A stable hydrogel needs to be able to hold its weight and/or maintain its shape during this assessment.
(§4) The critical gel concentration (CGC) is defined as the minimum mass of a short peptide required to provide a self-supporting hydrogel per unit volume in the vial inversion test (measured as % w/v).
(§5) Pre-weighed samples of short peptide 4 were prepared in aluminium-covered glass vials and Milli-Q water and 2 equivalents of NaOH (1.0 M) were added to make up concentrations of 1% w/v. The resulting suspensions were vortexed for 5 minutes to provide clear yellow solutions with pH 11.
(§6) To create a high ionic strength environment, 1 equivalent of NaCl was added and the vial was left to stand without disturbance for 3 hours at room temperature. Meanwhile, as an attempt to form a hydrogel by lowering the pH, 2 equivalents of GdL were added to a high pH solution of 4 followed by gentle mixing. These vials were inverted and allowed to stand overnight to confirm the hydrogel formation.
(§7) The formation of hydrogel 4 via the solvent switch method was conducted by dissolving short peptide 4, in an aluminium covered glass vial, with either 50% methanol, ethanol, or dimethyl sulfoxide (DMSO). Respective amounts of Mili-Q water were added to make up concentrations of 1% w/v.
(§8) In addition, gelation time was defined as the time (hours) required for 1% w/v of short peptide 4 to form a hydrogel which can be turned upside down without collapsing.
(§9) Pre-weighed samples of short peptides 10a-17a, 18, and 19 were prepared in glass vials with 10 mm internal diameter, and Milli-Q water was added to make up concentrations of 1% w/v. The resulting suspensions of short peptides 13, 18, and 19 (as ammonium or guanidinium salts) were slowly warmed until all solid had completely dissolved. GdL (1.5 to 2.0 equivalents) was added to the suspension of short peptides 10a-17a, before heat was applied. To create a high ionic strength environment, 1-5 equivalents of NaCl was added to the viscous solution of 10a-17a to make the total volume up to 1 mL, followed by gentle mixing, and the vial was left to stand without disturbance for 3 hours at room temperature. Subsequently, these vials were inverted and allowed to stand overnight to confirm hydrogel formation.

[4] = as above
Source text: as §3, §4, §5, §6, §7, §8, §9

[5] = Frequency sweep test (FST), rheometer; settings: for G′: 1% w/v
Procedure: The mechanical properties of anthranilamide-based cationic hydrogels were assessed using an Anton Paar MCR 302 rheometer with a 25 mm stainless parallel plate configuration.
as §1, §2
In the FST, samples were measured over a range of oscillation frequencies (0.1-10 rad/s) at fixed strain, temperature, and oscillation amplitude. Higher frequencies simulate fast motion on a short time-scale, while low frequencies simulate slow motion on a long time-scale, or rest. All of the hydrogels made from the anthranilamide-based short cationic peptides, which passed the vial inversion test, were subjected to the FST using a rheometer to precisely assess their mechanical properties.

[6] = hydrogels 11-13 at 1% w/v, FST fixed strain 0.1%

O=C(Nc1ccccc1C(=O)N[C@@H](Cc1ccccc1)C(=O)N[C@@H](Cc1ccccc1)C(=O)O)c1ccc([N+](=O)[O-])c(C(F)(F)F)c1 [Compound 4, (2-(4-Nitro-3-(trifluoromethyl)benzamido)benzoyl)-L-phenylalanyl-L-phenylalanine]
diameter of larger (bundled) fibers ([1]; hydrogel 4, before irradiation): 104±4 nm | fiber diameter ([1]; hydrogel 4 formed at high pH): 40±3 nm | fiber diameter ([1]; hydrogel 4 formed at low pH): 43±5 nm | fiber bundle diameter after irradiation ([1]; hydrogel 4 irradiated for 2 hours (blue light)): 68±6 nm | % strain (LVER) ([2]; hydrogel 4 at pH 5.5-6): 1.4% | % strain (LVER) ([2]; hydrogel 4 at pH 11): 1.2% | Remarks (gel state) ([3]; trigger NaOH): VS | Remarks (gel state) ([3]; trigger NaOH + GdL): CG | Remarks (gel state) ([3]; trigger NaOH + NaCl): CG | Time (gelation time) ([4]; solvent switch, DMSO 50 % v/v, 1% w/v): Immed. | Time (gelation time) ([4]; solvent switch, EtOH 5 % v/v): Immed. | Time (gelation time) ([4]; solvent switch, EtOH 50 % v/v, 1% w/v): Immed. | Time (gelation time) ([4]; solvent switch, MeOH 50 % v/v, 1% w/v): Immed. | CGC (critical gel concentration) ([4]; solvent switch, co-solvent DMSO 50 % v/v): 0.4 % w/v | CGC (critical gel concentration) ([4]; solvent switch, co-solvent EtOH 50 % v/v): 0.4 % w/v | CGC (critical gel concentration) ([4]; solvent switch, co-solvent MeOH 50 % v/v): 0.4 % w/v | Time (self-assembly/gelation) ([4]; trigger NaOH): 48 h | pH ([4]; trigger NaOH): 11 | Time (self-assembly/gelation) ([4]; trigger NaOH + GdL): 1 h | pH ([4]; trigger NaOH + GdL): 5.5 and 5.2 | CGC (critical gel concentration) ([4]; trigger NaOH + GdL (pH switch)): 0.2 % w/v | CGC (critical gel concentration) ([4]; trigger NaOH + NaCl): 0.2 % w/v | Time (self-assembly/gelation) ([4]; trigger NaOH + NaCl): 3 h | pH ([4]; trigger NaOH + NaCl): 11 | G′/G″ ([5]; hydrogel 4 at pH 5.5-6): 17 | G″ ([5]; hydrogel 4 at pH 5.5-6): 0.6 kPa | G′ ([5]; hydrogel 4 at pH 5.5-6 (low pH, GdL), before irradiation): 10.2 kPa | G′/G″ ([5]; hydrogel 4 at pH 11): 12 | G″ ([5]; hydrogel 4 at pH 11): 1.1 kPa | G′ ([5]; hydrogel 4 at pH 11 (high pH, NaCl)): 13.2 kPa | G′ after irradiation ([5]; hydrogel 4 irradiated (λ=440-450 nm) for 2 hours, after NO release): 4.9 kPa

NCCCNC(=O)[C@H](Cc1ccccc1)NC(=O)c1ccccc1NC(=O)c1ccc2ccccc2c1 [Compound 11]
fiber bundle diameter ([1]; hydrogel after addition of salt, 4× below CGC): 115±5 nm | diameter of fibers in the released solution ([1]; solution released from hydrogel 11, below CGC): 47±4.9 nm | fiber diameter ([1]; viscous solution without salt, 0.05% w/v): 74±6 nm | LVER (linear viscoelastic region) ([2]; hydrogels at 1% w/v, SST at 1 Hz, 0.1% to 100% strain): 0.98 ± 0.05% | Remarks (gel state) ([3]; cationic peptides 10-14, vial inversion test): CG | CGC ([4]; cationic peptides 10-14, triggers GdL, heat and NaCl (13: heat and NaCl)): 0.1 % w/v | pH ([4]; hydrogels of cationic peptides 10-14): 5.5 | G′/G″ ratio ([5]; hydrogels 11-13 at 1% w/v): 11.9 | G′ (modulus storage) [5, 6]: 0.83 kPa | G″ (modulus loss) [5, 6]: 0.07 kPa
